Measurements: PubChem BioAssay (NCI)
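Interpolation was linear, between the two tested concentrations surrounding the appropriate level; five concentrations were tested over 48 hours in 96-well plates. Definition used: TGI = concentration required for complete inhibition of growth.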

Test system: HL-60(TB) leukemia
Assay: NCI tumour cell line growth inhibition, 48 h

Compound	TGI
CCCCCCCCCCCCCCCCCC(CCCCCCCCCCCCCCCCC)OP(=O)(O)O	> 100 µM
O=C(COc1ccc(Br)cc1Br)N1N=C(c2ccc([N+](=O)[O-])o2)CC1(O)c1ccccc1 (centres undefined)	17.1 µM
CNS(=O)(=O)NNS(=O)(=O)c1ccc2ccccc2c1	> 100 µM
CCOC(=O)CN1C(=O)c2cccc3cc([N+](=O)[O-])cc(c23)C1=O	2.32 µM

Test system: HOP-18 NSCLC
Assay: NCI tumour cell line growth inhibition, 48 h

Compound	TGI
CCN(CC)CCC(=O)Nc1ccc2c(c1)C(=O)c1ccc(NC(=O)CCN(CC)CC)cc1C2=O	18.4 µM
COc1ccc(C(=O)C(C(=O)CCC(=O)Nc2ccc(C)c(C)c2)c2ccc(OC)cc2)cc1 (centres undefined)	> 100 µM
COc1cc2c(cc1OC)-c1c3cc(O)ccc3nn[n+]1CC2	> 100 µM
CCCCCCCCCCCCCCCCCC(CCCCCCCCCCCCCCCCC)OP(=O)(O)O	> 100 µM
O=C(COc1ccc(Br)cc1Br)N1N=C(c2ccc([N+](=O)[O-])o2)CC1(O)c1ccccc1 (centres undefined)	41 µM
CNS(=O)(=O)NNS(=O)(=O)c1ccc2ccccc2c1	> 100 µM
CCOC(=O)CN1C(=O)c2cccc3cc([N+](=O)[O-])cc(c23)C1=O	33.8 µM

Test system: HOP-62 NSCLC
Assay: NCI tumour cell line growth inhibition, 48 h

Compound	TGI
CCN(CC)CCC(=O)Nc1ccc2c(c1)C(=O)c1ccc(NC(=O)CCN(CC)CC)cc1C2=O	17.6 µM
COc1ccc(C(=O)C(C(=O)CCC(=O)Nc2ccc(C)c(C)c2)c2ccc(OC)cc2)cc1 (centres undefined)	> 100 µM
COc1cc2c(cc1OC)-c1c3cc(O)ccc3nn[n+]1CC2	> 100 µM
O=C(COc1ccc(Br)cc1Br)N1N=C(c2ccc([N+](=O)[O-])o2)CC1(O)c1ccccc1 (centres undefined)	27.5 µM
CNS(=O)(=O)NNS(=O)(=O)c1ccc2ccccc2c1	> 100 µM
CCOC(=O)CN1C(=O)c2cccc3cc([N+](=O)[O-])cc(c23)C1=O	32.3 µM
CC(N)Cc1ccc(C(=O)Cl)cc1 (centres undefined)	> 100 µM

Test system: HOP-92 NSCLC
Assay: NCI tumour cell line growth inhibition, 48 h

Compound	TGI
CCN(CC)CCC(=O)Nc1ccc2c(c1)C(=O)c1ccc(NC(=O)CCN(CC)CC)cc1C2=O	30 µM
COc1ccc(C(=O)C(C(=O)CCC(=O)Nc2ccc(C)c(C)c2)c2ccc(OC)cc2)cc1 (centres undefined)	> 100 µM
CCCCCCCCCCCCCCCCCC(CCCCCCCCCCCCCCCCC)OP(=O)(O)O	> 100 µM
CCOC(=O)CN1C(=O)c2cccc3cc([N+](=O)[O-])cc(c23)C1=O	6.21 µM

Test system: HT29 colon
Assay: NCI tumour cell line growth inhibition, 48 h

Compound	TGI
CCN(CC)CCC(=O)Nc1ccc2c(c1)C(=O)c1ccc(NC(=O)CCN(CC)CC)cc1C2=O	12.5 µM
COc1ccc(C(=O)C(C(=O)CCC(=O)Nc2ccc(C)c(C)c2)c2ccc(OC)cc2)cc1 (centres undefined)	> 100 µM
COc1cc2c(cc1OC)-c1c3cc(O)ccc3nn[n+]1CC2	> 100 µM
CCCCCCCCCCCCCCCCCC(CCCCCCCCCCCCCCCCC)OP(=O)(O)O	> 100 µM
O=C(COc1ccc(Br)cc1Br)N1N=C(c2ccc([N+](=O)[O-])o2)CC1(O)c1ccccc1 (centres undefined)	48 µM
CNS(=O)(=O)NNS(=O)(=O)c1ccc2ccccc2c1	> 100 µM
CCOC(=O)CN1C(=O)c2cccc3cc([N+](=O)[O-])cc(c23)C1=O	25.4 µM
CC(N)Cc1ccc(C(=O)Cl)cc1 (centres undefined)	> 100 µM

Test system: IGROV1 ovarian
Assay: NCI tumour cell line growth inhibition, 48 h

Compound	TGI
CCN(CC)CCC(=O)Nc1ccc2c(c1)C(=O)c1ccc(NC(=O)CCN(CC)CC)cc1C2=O	12 µM
COc1cc2c(cc1OC)-c1c3cc(O)ccc3nn[n+]1CC2	> 100 µM
CCCCCCCCCCCCCCCCCC(CCCCCCCCCCCCCCCCC)OP(=O)(O)O	> 100 µM
O=C(COc1ccc(Br)cc1Br)N1N=C(c2ccc([N+](=O)[O-])o2)CC1(O)c1ccccc1 (centres undefined)	75.9 µM
CNS(=O)(=O)NNS(=O)(=O)c1ccc2ccccc2c1	> 100 µM
CCOC(=O)CN1C(=O)c2cccc3cc([N+](=O)[O-])cc(c23)C1=O	14.8 µM
CC(N)Cc1ccc(C(=O)Cl)cc1 (centres undefined)	> 100 µM

Test system: K-562 leukemia
Assay: NCI tumour cell line growth inhibition, 48 h

Compound	TGI
CCN(CC)CCC(=O)Nc1ccc2c(c1)C(=O)c1ccc(NC(=O)CCN(CC)CC)cc1C2=O	14.8 µM
COc1cc2c(cc1OC)-c1c3cc(O)ccc3nn[n+]1CC2	> 100 µM
CCCCCCCCCCCCCCCCCC(CCCCCCCCCCCCCCCCC)OP(=O)(O)O	> 100 µM
O=C(COc1ccc(Br)cc1Br)N1N=C(c2ccc([N+](=O)[O-])o2)CC1(O)c1ccccc1 (centres undefined)	> 100 µM
CNS(=O)(=O)NNS(=O)(=O)c1ccc2ccccc2c1	> 100 µM
CCOC(=O)CN1C(=O)c2cccc3cc([N+](=O)[O-])cc(c23)C1=O	2.03 µM
CC(N)Cc1ccc(C(=O)Cl)cc1 (centres undefined)	> 100 µM

Test system: KM12 colon
Assay: NCI tumour cell line growth inhibition, 48 h

Compound	TGI
CCN(CC)CCC(=O)Nc1ccc2c(c1)C(=O)c1ccc(NC(=O)CCN(CC)CC)cc1C2=O	4.57 µM
COc1ccc(C(=O)C(C(=O)CCC(=O)Nc2ccc(C)c(C)c2)c2ccc(OC)cc2)cc1 (centres undefined)	> 100 µM
COc1cc2c(cc1OC)-c1c3cc(O)ccc3nn[n+]1CC2	> 100 µM
CCCCCCCCCCCCCCCCCC(CCCCCCCCCCCCCCCCC)OP(=O)(O)O	> 100 µM
O=C(COc1ccc(Br)cc1Br)N1N=C(c2ccc([N+](=O)[O-])o2)CC1(O)c1ccccc1 (centres undefined)	45.3 µM
